Assay results reported in the NIST ThermoML archive (doi:10.1016/j.jct.2012.03.031).

Assay: molar heat capacity at constant pressure
Details: 101.33 kPa

CCCCc1ccc(C(=O)Oc2ccc(C#N)c(F)c2)cc1 [4-cyano-3-fluorophenyl 4-butylbenzoate]
Details	molar heat capacity at constant pressure [J/K/mol]
221.07 K, Crystal 2, Small (less than 1 g) adiabatic calorimetry	311.55
221.65 K, Crystal 1, Small (less than 1 g) adiabatic calorimetry	297.64
222.84 K, Crystal 1, Small (less than 1 g) adiabatic calorimetry	299.23
223.8 K, Crystal 2, Small (less than 1 g) adiabatic calorimetry	314.36
223.83 K, Crystal 1, Small (less than 1 g) adiabatic calorimetry	300.59
224.03 K, Crystal 1, Small (less than 1 g) adiabatic calorimetry	300.76
225.22 K, Crystal 1, Small (less than 1 g) adiabatic calorimetry	302.28
226.41 K, Crystal 1, Small (less than 1 g) adiabatic calorimetry	303.96
226.54 K, Crystal 2, Small (less than 1 g) adiabatic calorimetry	317.16
226.65 K, Crystal 1, Small (less than 1 g) adiabatic calorimetry	304.49
227.59 K, Crystal 1, Small (less than 1 g) adiabatic calorimetry	305.68
228.77 K, Crystal 1, Small (less than 1 g) adiabatic calorimetry	307.52
229.29 K, Crystal 2, Small (less than 1 g) adiabatic calorimetry	320.04
229.47 K, Crystal 1, Small (less than 1 g) adiabatic calorimetry	308.62
229.94 K, Crystal 1, Small (less than 1 g) adiabatic calorimetry	309.12
230 K, Crystal 1, Vacuum adiabatic calorimetry	309.39
230 K, Crystal 2, Vacuum adiabatic calorimetry	320.68
231.12 K, Crystal 1, Small (less than 1 g) adiabatic calorimetry	310.59
232.06 K, Crystal 2, Small (less than 1 g) adiabatic calorimetry	322.55
232.28 K, Crystal 1, Small (less than 1 g) adiabatic calorimetry	312.29
232.3 K, Crystal 1, Small (less than 1 g) adiabatic calorimetry	312.7
233.45 K, Crystal 1, Small (less than 1 g) adiabatic calorimetry	313.85
234.61 K, Crystal 1, Small (less than 1 g) adiabatic calorimetry	315.48
234.84 K, Crystal 2, Small (less than 1 g) adiabatic calorimetry	325.57
235.14 K, Crystal 1, Small (less than 1 g) adiabatic calorimetry	316.89
235.77 K, Crystal 1, Small (less than 1 g) adiabatic calorimetry	317.02
236.93 K, Crystal 1, Small (less than 1 g) adiabatic calorimetry	318.75
237.63 K, Crystal 2, Small (less than 1 g) adiabatic calorimetry	328.79
238.05 K, Crystal 1, Small (less than 1 g) adiabatic calorimetry	321.4
238.08 K, Crystal 1, Small (less than 1 g) adiabatic calorimetry	320.42
239.23 K, Crystal 1, Small (less than 1 g) adiabatic calorimetry	322.04
240 K, Crystal 1, Vacuum adiabatic calorimetry	324.53
240 K, Crystal 2, Vacuum adiabatic calorimetry	332.29
240.38 K, Crystal 1, Small (less than 1 g) adiabatic calorimetry	323.67
240.43 K, Crystal 2, Small (less than 1 g) adiabatic calorimetry	332.92
241.04 K, Crystal 1, Small (less than 1 g) adiabatic calorimetry	326.21
241.52 K, Crystal 1, Small (less than 1 g) adiabatic calorimetry	325.48
242.66 K, Crystal 1, Small (less than 1 g) adiabatic calorimetry	327.48
243.24 K, Crystal 2, Small (less than 1 g) adiabatic calorimetry	336.05
243.8 K, Crystal 1, Small (less than 1 g) adiabatic calorimetry	328.63
244.07 K, Crystal 1, Small (less than 1 g) adiabatic calorimetry	330.21
246.07 K, Crystal 1, Small (less than 1 g) adiabatic calorimetry	331.47
247.13 K, Crystal 1, Small (less than 1 g) adiabatic calorimetry	334.86
247.2 K, Crystal 1, Small (less than 1 g) adiabatic calorimetry	333.06
248.33 K, Crystal 1, Small (less than 1 g) adiabatic calorimetry	334.82
249.45 K, Crystal 1, Small (less than 1 g) adiabatic calorimetry	336.63
250 K, Crystal 1, Vacuum adiabatic calorimetry	339.52
250.22 K, Crystal 1, Small (less than 1 g) adiabatic calorimetry	339.88
250.57 K, Crystal 1, Small (less than 1 g) adiabatic calorimetry	338.23
251.69 K, Crystal 1, Small (less than 1 g) adiabatic calorimetry	339.75
252.81 K, Crystal 1, Small (less than 1 g) adiabatic calorimetry	341.78
253.35 K, Crystal 1, Small (less than 1 g) adiabatic calorimetry	344.81
253.92 K, Crystal 1, Small (less than 1 g) adiabatic calorimetry	343.44
255.03 K, Crystal 1, Small (less than 1 g) adiabatic calorimetry	345.42
256.14 K, Crystal 1, Small (less than 1 g) adiabatic calorimetry	347.42
256.51 K, Crystal 1, Small (less than 1 g) adiabatic calorimetry	349.77
257.24 K, Crystal 1, Small (less than 1 g) adiabatic calorimetry	349.12
258.34 K, Crystal 1, Small (less than 1 g) adiabatic calorimetry	350.75
259.44 K, Crystal 1, Small (less than 1 g) adiabatic calorimetry	352.9
259.7 K, Crystal 1, Small (less than 1 g) adiabatic calorimetry	354.86
260 K, Crystal 1, Vacuum adiabatic calorimetry	355.31
260.54 K, Crystal 1, Small (less than 1 g) adiabatic calorimetry	354.79
261.63 K, Crystal 1, Small (less than 1 g) adiabatic calorimetry	356.59
262.72 K, Crystal 1, Small (less than 1 g) adiabatic calorimetry	358.59
262.92 K, Crystal 1, Small (less than 1 g) adiabatic calorimetry	359.67
263.8 K, Crystal 1, Small (less than 1 g) adiabatic calorimetry	360.46
264.89 K, Crystal 1, Small (less than 1 g) adiabatic calorimetry	362.63
265.96 K, Crystal 1, Small (less than 1 g) adiabatic calorimetry	364.99
266.18 K, Crystal 1, Small (less than 1 g) adiabatic calorimetry	364.4
267.04 K, Crystal 1, Small (less than 1 g) adiabatic calorimetry	367.18
268.11 K, Crystal 1, Small (less than 1 g) adiabatic calorimetry	369.24
269.18 K, Crystal 1, Small (less than 1 g) adiabatic calorimetry	371.72
269.46 K, Crystal 1, Small (less than 1 g) adiabatic calorimetry	369.89
270 K, Crystal 1, Vacuum adiabatic calorimetry	371.52
270.25 K, Crystal 1, Small (less than 1 g) adiabatic calorimetry	373.77
271.31 K, Crystal 1, Small (less than 1 g) adiabatic calorimetry	375.16
272.37 K, Crystal 1, Small (less than 1 g) adiabatic calorimetry	378.43
272.76 K, Crystal 1, Small (less than 1 g) adiabatic calorimetry	379.8
273.42 K, Crystal 1, Small (less than 1 g) adiabatic calorimetry	380.54
274.47 K, Crystal 1, Small (less than 1 g) adiabatic calorimetry	383.84
275.53 K, Crystal 1, Small (less than 1 g) adiabatic calorimetry	385.34
276.08 K, Crystal 1, Small (less than 1 g) adiabatic calorimetry	388.45
276.58 K, Crystal 1, Small (less than 1 g) adiabatic calorimetry	389.76
277.62 K, Crystal 1, Small (less than 1 g) adiabatic calorimetry	392.5
278.67 K, Crystal 1, Small (less than 1 g) adiabatic calorimetry	396.43
279.42 K, Crystal 1, Small (less than 1 g) adiabatic calorimetry	397.42
279.7 K, Crystal 1, Small (less than 1 g) adiabatic calorimetry	398.5
280 K, Crystal 1, Vacuum adiabatic calorimetry	397.19
281.47 K, Crystal 1, Small (less than 1 g) adiabatic calorimetry	402.8
282.22 K, Crystal 1, Small (less than 1 g) adiabatic calorimetry	405.47
282.99 K, Crystal 1, Small (less than 1 g) adiabatic calorimetry	408.97
283.75 K, Crystal 1, Small (less than 1 g) adiabatic calorimetry	414.38
284.5 K, Crystal 1, Small (less than 1 g) adiabatic calorimetry	422.32
285.25 K, Crystal 1, Small (less than 1 g) adiabatic calorimetry	436.88
285.98 K, Crystal 1, Small (less than 1 g) adiabatic calorimetry	474.25

Liquid
Details	molar heat capacity at constant pressure [J/K/mol]
289.24 K, Small (less than 1 g) adiabatic calorimetry	479.05
289.97 K, Small (less than 1 g) adiabatic calorimetry	476.93
290 K, Vacuum adiabatic calorimetry	473.62
290.7 K, Small (less than 1 g) adiabatic calorimetry	476.25
291.67 K, Small (less than 1 g) adiabatic calorimetry	476.45
291.8 K, Small (less than 1 g) adiabatic calorimetry	475.34
293.12 K, Small (less than 1 g) adiabatic calorimetry	477.07
294.48 K, Small (less than 1 g) adiabatic calorimetry	476.74
295.04 K, Small (less than 1 g) adiabatic calorimetry	477.7
297.17 K, Small (less than 1 g) adiabatic calorimetry	477.75
297.43 K, Small (less than 1 g) adiabatic calorimetry	478.84
298.15 K, Vacuum adiabatic calorimetry	478.16
299.87 K, Small (less than 1 g) adiabatic calorimetry	478.89
300 K, Vacuum adiabatic calorimetry	478.96
302.6 K, Small (less than 1 g) adiabatic calorimetry	480.42
305.34 K, Small (less than 1 g) adiabatic calorimetry	481.47
308.1 K, Small (less than 1 g) adiabatic calorimetry	482.84
310 K, Vacuum adiabatic calorimetry	483.98
310.87 K, Small (less than 1 g) adiabatic calorimetry	484.5
313.66 K, Small (less than 1 g) adiabatic calorimetry	486.08
316.47 K, Small (less than 1 g) adiabatic calorimetry	487.53
319.29 K, Small (less than 1 g) adiabatic calorimetry	489.61
320 K, Vacuum adiabatic calorimetry	490.09
322.13 K, Small (less than 1 g) adiabatic calorimetry	491.52
324.98 K, Small (less than 1 g) adiabatic calorimetry	493.16
327.85 K, Small (less than 1 g) adiabatic calorimetry	495.06
330 K, Vacuum adiabatic calorimetry	496.49
330.74 K, Small (less than 1 g) adiabatic calorimetry	496.98
333.64 K, Small (less than 1 g) adiabatic calorimetry	498.96
336.55 K, Small (less than 1 g) adiabatic calorimetry	500.86
339.48 K, Small (less than 1 g) adiabatic calorimetry	502.59
340 K, Vacuum adiabatic calorimetry	502.96
342.43 K, Small (less than 1 g) adiabatic calorimetry	504.71
345.39 K, Small (less than 1 g) adiabatic calorimetry	506.48
348.36 K, Small (less than 1 g) adiabatic calorimetry	508.66
350 K, Vacuum adiabatic calorimetry	509.84
351.35 K, Small (less than 1 g) adiabatic calorimetry	510.81
354.35 K, Small (less than 1 g) adiabatic calorimetry	513
357.37 K, Small (less than 1 g) adiabatic calorimetry	514.97
360.4 K, Small (less than 1 g) adiabatic calorimetry	517.24
